Measurements as given in article PMC10357585 (Biochemistry, 2023).
Marks after values point to notes of the source that are not given here. Blank lines part the entries; values can stand above or below the compound they belong to.

Key:
TcHGXPRT [1] = target: T1, TcHGXPRT (Trypanosoma cruzi, UniProt Q4DRC3); test: Product inhibition studies of TcHGXPRT; assay type: biochemical; conditions: PRPP 1 mM
T1 sequence (Q4DRC3 1-231): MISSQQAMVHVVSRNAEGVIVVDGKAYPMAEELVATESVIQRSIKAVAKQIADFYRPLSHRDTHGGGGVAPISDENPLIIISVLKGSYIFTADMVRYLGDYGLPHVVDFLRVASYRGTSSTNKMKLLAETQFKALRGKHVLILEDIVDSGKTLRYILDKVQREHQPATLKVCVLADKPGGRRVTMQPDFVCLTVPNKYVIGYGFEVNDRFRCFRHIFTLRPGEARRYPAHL

TcHGXPRT [2] = target: T1, TcHGXPRT; test: Initial rate studies of TcHGXPRT, GMP biosynthesis; assay type: biochemical; conditions: for kcat: GMP biosynthesis; for Ki: Ki,PRPP
TcHGPRT = conditions: variable substrate PRPP (20–215 μM); ref Wenck et al., 2004.[30]; cited from earlier work
TcHGXPRT [3] = target: T1, TcHGXPRT; test: Dead-end inhibition studies of TcHGXPRT; assay type: biochemical
TcA (HGPRT) = conditions: variable 6-oxopurine, PRPP 1 mM, ref Glockzin et al., 2022.[43]; cited from earlier work
PfHGXPRT = conditions: read-out: apparent Km, Xan as substrate; cited from earlier work
[4] = variable substrate PRPP (1–78 μM) at fixed Gua levels
[5] = variable substrate Guanine (10–300 μM) at fixed PRPP levels

Inhibition pattern (TcHGXPRT [1]; PPi (0–200 μM) vs. variable Xan (2.5–150 μM)): NC ^e | Kii (TcHGXPRT [1]; PPi vs. variable Xan): 1400 ± 400 µM | Ki (TcHGXPRT [1]; read-out: Kis, PPi vs. variable Xan): 190 ± 40 µM
SMILES: O=P(O)(O)OP(=O)(O)O [PPi, pyrophosphate]

kcat (TcHGXPRT [2]; [4]): 0.44 ± 0.02 s^–1 | Ki (TcHGXPRT [2]; [5]): 0.7 ± 0.2 µM | Ki (TcHGXPRT [2]; [4]): 0.6 ± 0.3 µM
SMILES: O=P(O)(O)OC[C@H]1O[C@H](OP(=O)(O)OP(=O)(O)O)[C@H](O)[C@@H]1O [PRPP, 5-phospho-D-ribose 1-pyrophosphate]
KPRPP (TcHGPRT): 32 ± 5 ^d μM | kcat/KPRPP (TcHGPRT): 1010 ^d × 10^3 M^–1 s^–1

Ki (TcHGXPRT [3]): 70 ± 10 µM | Inhibition pattern (TcHGXPRT [3]; 9-deazaxanthine (0–250 μM) vs. variable Xan (3–100 μM), PRPP 1 mM): C ^e | Inhibition pattern (TcHGXPRT [3]; 9-deazaxanthine (0–600 μM) vs. variable PRPP (23–750 μM), Xan 120 μM): UC ^e | Kii (TcHGXPRT [3]; 9-deazaxanthine vs. variable PRPP, Xan 120 μM, 37 °C, pH 8.3, 12 mM MgCl2): 490 ± 40 µM
SMILES: O=c1[nH]c(=O)c2[nH]ccc2[nH]1 [9-deazaxanthine]

kcat (TcHGXPRT [2]; [5]): 0.46 ± 0.01 s^–1
SMILES: Nc1nc2nc[nH]c2c(=O)[nH]1 [Gua, guanine]
Km (TcA (HGPRT)): 19 ± 1 µM | kcat (TcA (HGPRT)): 32 ± 1 ^b s^–1 | KGua (TcHGPRT): 12 ± 1 ^d μM | kcat/KGua (TcHGPRT): 2650 ^d × 10^3 M^–1 s^–1

SMILES: O=c1[nH]c(=O)c2nc[nH]c2[nH]1 [Xan, xanthine]
Km (TcA (HGPRT)): 160 ± 40 µM | kcat (TcA (HGPRT)): 0.005 ± 0.0006 ^b s^–1 | Km (PfHGXPRT): 189 to 420 µM

SMILES: O=c1[nH]cnc2nc[nH]c12 [Hx, hypoxanthine]
Km (TcA (HGPRT)): 13 ± 4 µM | kcat (TcA (HGPRT)): 32 ± 1 ^b s^–1
